Target: Progesterone receptor (Gallus gallus) (UniProt P07812)
Assay: Equilibrium dissociation constant for chick oviduct progesterone receptor

Sequence of Progesterone receptor (Gallus gallus) (P07812 whole entry, looked up): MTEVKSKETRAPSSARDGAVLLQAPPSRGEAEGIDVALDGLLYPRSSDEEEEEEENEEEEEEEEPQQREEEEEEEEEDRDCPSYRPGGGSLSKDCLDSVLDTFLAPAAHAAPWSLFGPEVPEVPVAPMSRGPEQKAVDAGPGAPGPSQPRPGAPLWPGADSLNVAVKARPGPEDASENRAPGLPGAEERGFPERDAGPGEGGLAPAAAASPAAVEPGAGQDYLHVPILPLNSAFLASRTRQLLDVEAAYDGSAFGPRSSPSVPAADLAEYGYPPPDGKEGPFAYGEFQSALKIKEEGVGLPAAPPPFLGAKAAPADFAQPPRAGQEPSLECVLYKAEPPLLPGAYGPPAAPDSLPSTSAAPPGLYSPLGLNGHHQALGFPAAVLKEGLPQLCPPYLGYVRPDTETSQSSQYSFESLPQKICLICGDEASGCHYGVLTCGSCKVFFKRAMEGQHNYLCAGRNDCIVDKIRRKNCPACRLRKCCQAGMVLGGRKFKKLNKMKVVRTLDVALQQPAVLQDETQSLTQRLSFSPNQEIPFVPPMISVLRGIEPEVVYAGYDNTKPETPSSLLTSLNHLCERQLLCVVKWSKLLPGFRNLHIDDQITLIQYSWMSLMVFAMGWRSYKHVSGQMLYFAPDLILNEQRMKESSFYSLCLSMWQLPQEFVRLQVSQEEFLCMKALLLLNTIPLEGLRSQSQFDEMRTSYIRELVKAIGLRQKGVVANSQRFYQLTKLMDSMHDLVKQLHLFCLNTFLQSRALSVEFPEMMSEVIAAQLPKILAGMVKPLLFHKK

Question: For `C#C[C@@H](O)C12CCCC1C1CCC3=CC(=O)CC[C@@H]3C1CC2` (stereo partly specified), which Kd is on record?
Answer: 160 nM

Reference: BindingDB's records for doi:10.1021/jm00375a008 (1984)
